Data taken from patent publication US11311560B2, “Cyclic plasmenylethanolamines” (MED-LIFE DISCOVERIES LP, priority 2017, dated 2022).

System: wild-type mouse hippocampal brain slices
Assay: Long term potentiation (LTP) on multi-electrode array
Assay type: cell-based
Details: 0.5 μM, monitored for 60 mins, vs vehicle (0.2% DMSO)
Experimental: It is hypothesized that brain plasmalogen levels affect neurotransmission. Accordingly, in this study, wild-type mouse hippocampal brain slices were incubated in artificial cerebro-spinal fluid containing either vehicle or PPI-1040. The slices were incubated on a multi-electrode array (MEA) with electrodes spaced 100 μm apart. A single electrode was selected to stimulate Schaffer collaterals cells which triggered field excitatory post-synaptic potential (fEPSP) in the stratum radiatum. After 10 minutes of control recording, in the presences of either PPI-1040 or vehicle, long term potentiation (LTP) was induced by a single train of 10 bursts composed of 4 stimuli at 100 Hz each with a 200 millisecond interval between.

For `CC/C=C\C/C=C\C/C=C\C/C=C\C/C=C\C/C=C\CCC(=O)OC(CO/C=C\CCCCCCCCCCCCCC)COP1(=O)NCCO1` (stereo not shown) [PPI-1040, 1-(((Z)-hexadec-1-en-1-yl)oxy)-3-((2-oxido-1,3,2-oxazaphospholidin-2-yl)oxy)propan-2-yl (4Z,7Z,10Z,13Z,16Z,19Z)-docosa-4,7,10,13,16,19-hexaenoate], the “long term potentiation (LTP) of fEPSP” value was “increased LTP compared to vehicle treated controls”.
